The source of these data is US6569878B1, “Substituted 4-amino-thiazol-2-yl compounds as cyclin-dependent kinase inhibitors” (Agouron Pharmaceuticals Inc., priority 1997, dated 2003).

What is called IC50 is the midpoint of a concentration-inhibition curve. Lower therefore signals greater potency in that assay. For orientation: IC90 means the concentration at which the effect reaches the 90% level.

Some results are limits rather than exact numbers.

Experiment [1] deals with T1, CDK2/cyclin A (Homo sapiens, UniProt P24941).
T1 construct: made in house; host or cells: CDK2: insect cells (baculovirus); cyclin A: E. coli, then limited proteolysis
Briefly: Inhibition of CDK2/cyclin A retinoblastoma kinase activity. The class given is biochemical. The note with it: read-out: Ki CDK 2/A. Summed up:
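Baculovirus-expressed CDK2 with excess proteolyzed cyclin A (or purified complex), 150 nM or 5 nM, phosphorylating an Rb fragment with 25 μM [32/33P]ATP, pH 7.4, 30° C, 20 min. Filter-captured radioactivity by phosphorimager; apparent Ki from fits to competitive or tight-binding competitive inhibition using measured ATP Km.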

For experiment [2], the target named is T2, human CDK1 (cdc2) and cyclin B (Homo sapiens, UniProt P06493).
T2 construct: purchased New England Biolabs (Beverly Mass.)
T2 sequence (P06493 whole entry): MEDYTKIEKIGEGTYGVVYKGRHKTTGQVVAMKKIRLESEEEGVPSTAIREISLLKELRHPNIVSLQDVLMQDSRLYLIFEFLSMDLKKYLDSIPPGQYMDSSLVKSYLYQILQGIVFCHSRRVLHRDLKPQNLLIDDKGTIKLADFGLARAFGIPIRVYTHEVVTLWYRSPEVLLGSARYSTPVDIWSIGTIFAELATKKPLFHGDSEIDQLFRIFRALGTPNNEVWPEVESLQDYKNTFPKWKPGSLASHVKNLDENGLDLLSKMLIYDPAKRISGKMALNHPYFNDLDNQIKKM
T2 sequence (P14635 whole entry partner): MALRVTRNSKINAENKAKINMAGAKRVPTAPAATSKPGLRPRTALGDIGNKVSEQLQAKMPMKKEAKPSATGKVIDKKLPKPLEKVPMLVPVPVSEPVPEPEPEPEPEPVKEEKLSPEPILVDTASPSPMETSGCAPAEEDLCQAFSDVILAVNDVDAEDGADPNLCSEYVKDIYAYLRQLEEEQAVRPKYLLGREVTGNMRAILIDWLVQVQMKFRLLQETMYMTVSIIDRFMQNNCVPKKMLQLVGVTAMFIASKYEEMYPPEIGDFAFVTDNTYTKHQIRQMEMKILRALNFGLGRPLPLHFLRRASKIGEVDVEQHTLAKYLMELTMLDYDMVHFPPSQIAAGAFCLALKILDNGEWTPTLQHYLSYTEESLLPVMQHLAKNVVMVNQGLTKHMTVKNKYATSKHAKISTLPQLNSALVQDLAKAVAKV
Put plainly: Inhibition of CDK1(cdc2)/cyclin B histone H1 kinase activity. In kind it is biochemical. The note with it: read-out: Ki CDK 1/B. On the procedure: Cyclin-dependent kinase activity was measured by quantifying the enzyme-catalyzed, time-dependent incorporation of radioactive phosphate from [^32P]ATP or [^33P]ATP into a protein substrate. Unless noted otherwise, assays were performed in 96-well plates in a total volume of 50 μL, in the presence of 10 mM HEPES (N-[2-hydroxyethyl]piperazine-N′-[2-ethanesulfonic acid]) (pH 7.4), 10 mM MgCl2, 25 μM adenosine triphosphate (ATP), 1 mg/mL ovalbumin, 5 μg/mL leupeptin, 1 mM dithiothreitol, 10 mM β-glycerophosphate, 0.1 mM sodium vanadate, 1 mM sodium fluoride, 2.5 mM ethylene glycol-bis(β-aminoethyl ether)-N,N,N′N′-tetraacetic acid (EGTA), 2% (v/v) dimethylsulfoxide, and 0.03-0.4 μCi [^32/33P]ATP per reaction. Reactions were initiated with enzyme, incubated at 30° C., and terminated after 20 minutes by the addition of ethylenediaminetetraacetic acid (EDTA) to 250 mM. The phosphorylated substrate was then captured on a nitrocellulose or phosphocellulose membrane using a 96-well filtration manifold, and unincorporated radioactivity was removed by repeated washing with 0.85% phosphoric acid. Radioactivity was quantified by exposing the dried membranes to a phosphorimager.
Apparent Ki values were measured by assaying enzyme activity in the presence of different inhibitor compound concentrations and subtracting the background radioactivity measured in the absence of enzyme. The kinetic parameters (kcat, Km for ATP) were measured for each enzyme under the usual assay conditions by determining the dependence of initial rates on ATP concentration. Inhibition data were fit to an equation for competitive inhibition using Kaleidagraph (Synergy Software), or were fit to an equation for competitive tight-binding inhibition using the software KineTic (BioKin, Ltd.).
The complex of human CDK1 (cdc2) and cyclin B was purchased from New England Biolabs (Beverly Mass.). Alternatively, a CDK1/glutathione-S-transferase-cyclin B1 complex was purified using glutathione affinity chromatography from insect cells that had been co-infected with the corresponding baculovirus expression vectors. The assay was executed as described above at 30° C. using 2.5 units of cdc2/cyclin B, 10 μg Histone H1 protein, and 0.1-0.3 μCi [^32/33P]ATP per assay. Phosphorylated histone substrate was captured by microfiltration on a phosphocellulose P81 membrane and quantified using a phosphorimager as described above. Ki values were measured using the described curve-fitting programs.

Experiment [3] has as its system HCT116. Put plainly: Inhibition of cell growth, MTT assay, HCT116. The note with it: for IC50 / IC90: Homo sapiens, HCT-116. In kind it is cell-based, human. As to the method: (§1) The water-insoluble purple formazan product was then detected spectrophotometrically. […] Plates were incubated for four hours before addition of inhibitor compounds. Different concentrations of inhibitor compounds were added in 0.5% (v/v) dimethylsulfoxide (15 μL/well), and cells were incubated at 37° C. (5% CO2) for four to six days (depending on cell type). At the end of the incubation, MTT was added to a final concentration of 0.2 mg/mL, and cells were incubated for 4 hours more at 37° C. After centrifugation of the plates and removal of medium, the absorbance of the formazan (solubilized in dimethylsulfoxide) was measured at 540 nm.
A general note: Tetrazolium dyes change colour on reduction, which living cells bring about.

Experiment [4] has as its system Saos-2. Briefly: Inhibition of cell growth, MTT assay, Saos-2. The class given is cell-based. The settings on record: Saos-2, MTT assay; for IC50 / IC90: Homo sapiens. As to the method: as §1
Experiment [5] addresses T3, complex of human CDK4 and cyclin D3 (Homo sapiens, UniProt P11802).
T3 construct: made in house; host or cells: insect cells, co-infected with baculovirus
Briefly: Inhibition of CDK4/cyclin D retinoblastoma kinase activity (D-type cyclin is D3). The settings on record: superscript a: D-type cyclin is D3; apparent Ki; read-out: Ki CDK 4/D. In kind it is biochemical. The method in brief: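 Apparent Ki derived by fitting background-corrected activity to competitive (or, for tight binders, competitive tight-binding) equations with measured ATP Km. Rb phosphorylation by radiolabelled ATP was measured at 30°C, 20 min standard or 60 min at 5 nM complex for tight binders, via nitrocellulose capture and phosphorimager.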

Experiment [6] deals with U2-OS. Briefly: Inhibition of cell growth, MTT assay, U2-OS. The class given is cell-based. The settings on record: for IC50 / IC90: Homo sapiens, U2OS. On the procedure:
as §1

T3 sequence (P11802 whole entry): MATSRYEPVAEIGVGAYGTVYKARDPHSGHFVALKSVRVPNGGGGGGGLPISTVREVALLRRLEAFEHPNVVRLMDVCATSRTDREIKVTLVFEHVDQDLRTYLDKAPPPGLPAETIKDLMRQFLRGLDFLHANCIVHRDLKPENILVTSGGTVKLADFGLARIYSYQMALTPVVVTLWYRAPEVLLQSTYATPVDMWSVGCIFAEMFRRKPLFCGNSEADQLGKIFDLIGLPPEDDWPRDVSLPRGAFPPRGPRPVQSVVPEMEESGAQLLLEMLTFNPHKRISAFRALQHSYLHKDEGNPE
T3 sequence (P30281 whole entry partner): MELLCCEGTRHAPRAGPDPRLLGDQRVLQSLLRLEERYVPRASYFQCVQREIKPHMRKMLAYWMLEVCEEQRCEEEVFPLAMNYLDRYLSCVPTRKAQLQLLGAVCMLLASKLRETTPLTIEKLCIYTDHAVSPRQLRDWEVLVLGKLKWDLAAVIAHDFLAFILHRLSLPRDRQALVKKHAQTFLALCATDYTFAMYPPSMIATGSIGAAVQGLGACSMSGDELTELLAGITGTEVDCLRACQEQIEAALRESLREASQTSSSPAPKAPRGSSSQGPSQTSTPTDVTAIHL

For `CN1CCN(c2ccc(Nc3nc(N)c(C(=O)c4c(Cl)cccc4Cl)s3)cc2)CC1` [C(71), {4-Amino-2-[4-(4-methyl-piperazin-1-yl)-phenylamino]-thiazol-5-yl}-(2,6-dichloro-phenyl)-methanone], the Ki in experiment [1] turned out to be 482 nM; in experiment [2], 827 nM.

Take `CN1CCN(c2ccc(Nc3nc(N)c(C(=O)c4c(F)cccc4F)s3)cc2)CC1` [C(80), {4-Amino-2-[4-(4-methyl-piperazin-1-yl)-phenylamino]-thiazol-5-yl}-(2,6-difluoro-phenyl)-methanone]: the Ki in experiment [1] is 220 nM; in experiment [2] it was 325 nM.

As for `Nc1nc(Nc2ccc(C(=O)C3COC(=O)[C@H]3N)cc2)sc1C(=O)c1c(Cl)cncc1Cl` (stereo partly drawn) [C(88), trans-3RS-Amino-4RS-{4-[4-amino-5-(3,5-dichloropyridine-4-carbonyl)-thiazol-2-ylamino]-benzoyl}-dihydro-furan-2-one], the results for the 50% inhibitory concentration (IC50) in experiment [3], in experiment [4] and in experiment [6] were 19000 nM, 22000 nM and above 25000 nM, respectively. Besides, the IC90 in experiment [3] and in experiment [4] was above 25000 nM in each case. Further, the “% inhibition of growth in parentheses after >25” value in experiment [3] (concentration not given) is reported as 70%; in experiment [4] (concentration not given), “(56%)”; in experiment [6] (concentration not given), 26%. Moreover, the figures for the Ki in experiment [1] and in experiment [5] were 305 nM and 65 nM, respectively.

As to `Nc1nc(Nc2ccc3nc[nH]c3c2)sc1C(=O)c1c(Cl)cc(Br)c(N)c1Cl` [C(91), [4-Amino-2-(1H-benzoimidazol-6-ylamino)-thiazol-5-yl]-(3-amino-4-bromo-2,6-dichloro-phenyl)-methanone], the values for the half-inhibitory concentration (IC50) in experiment [3], in experiment [4] and in experiment [6] were 4700 nM, 5900 nM and 19000 nM, respectively. The IC90 in experiment [3] was 18000 nM; in experiment [4], 23000 nM; in experiment [6] it was above 25000 nM. Moreover, the figures for the Ki in experiment [1] and in experiment [5] were 81 nM and 6.8 nM, respectively.

For `CC(=O)N1CCN(c2ccc(Nc3nc(N)c(C(=O)c4c(Cl)cccc4Cl)s3)cc2)CC1` [C(97), 2-[4-(1-Acetyl-piperazin-4-yl)-phenylamino]-4-amino-thiazol-5-yl-(2,6-dichlorophenyl)-methanone], the IC50 in experiment [3] came to 3900 nM; in experiment [4], 9000 nM; in experiment [6], 10000 nM. The IC90 is 11000 nM in experiment [3], 20000 nM in experiment [4] and 21000 nM in experiment [6]. Besides, the figures for the Ki in experiment [1] and in experiment [5] were 392 nM and 8.5 nM, respectively.

Turning to `CN1CCN(c2ccc(Nc3nc(N)c(C(=O)c4c(F)cccc4C(F)(F)F)s3)cc2)CC1` [C(100), {4-Amino-2-[4-(4-methyl-piperazin-1-yl)-phenylamino]-thiazol-5-yl}-(2-fluoro-6-trifluoromethyl-phenyl)-methanone], the Ki in experiment [1] stood at 620 nM; in experiment [2] it was 911 nM.

On to `CC(C)(C)OC(=O)N1CCN(c2ccc(Nc3nc(N)c(C(=O)c4c(F)cccc4F)s3)cc2)CC1` [C(101), 4-Amino-2-[4-(1-tert-butoxycarbonyl-piperazine-4-yl)-phenylamino]-thiazol-5-yl-(2,6-difluorophenyl)-methanone], for which the Ki was determined as 300 nM in experiment [1], 103 nM in experiment [5] and 320 nM in experiment [2].

On to `Nc1nc(Nc2ccc(S(N)(=O)=O)cc2)sc1C(=O)c1c(Cl)cc(Cl)cc1Cl` [C(107), 4-[4-Amino-5-(2,4,6-trichloro-benzoyl)-thiazol-2-yl-amino]-benzenesulfonamide], for which the figures for the IC50 in experiment [3], in experiment [4] and in experiment [6] were 2500 nM, 5700 nM and 7900 nM, respectively. Besides, the IC90 in experiment [3] was 7000 nM; in experiment [4], 12000 nM; in experiment [6] it was 12000 nM. The Ki worked out at 12.5 nM in experiment [1] and 13.8 nM in experiment [5].

Consider `CNS(=O)(=O)c1ccc(Nc2nc(N)c(C(=O)c3c(F)cccc3F)s2)cc1` [C(108), 4-[4-Amino-5-(2,6-difluoro-benzoyl)-thiazol-2-ylamino]-N-methyl-benzenesulfonamide], for which the Ki in experiment [1] came out at 6.8 nM; in experiment [5], 23 nM; in experiment [2], 9 nM. Further, the IC50 is 310 nM in experiment [4] and 1400 nM in experiment [6]. The IC90 in experiment [4] turned out to be 3200 nM; in experiment [6] it was 4800 nM.

Regarding `CC(=O)N1CCN(c2ccc(Nc3nc(N)c(C(=O)c4c(F)cccc4F)s3)cc2)CC1` [C(111), 2-[4-(1-Acetyl-piperazin-4-yl)-phenylamino]-4-amino-thiazol-5-yl-(2,6-difluorophenyl)-methanone], the figures for the IC50 in experiment [3], in experiment [4] and in experiment [6] were 1700 nM, 3800 nM and 3000 nM, respectively. For the same molecule, the IC90 in experiment [3] was 3800 nM; in experiment [4], 5900 nM; in experiment [6] it was 5500 nM. The Ki stood at 216 nM in experiment [1] and 21 nM in experiment [5].

Consider `NC(=O)c1ccc(Nc2nc(N)c(C(=O)c3c(F)cccc3C(F)(F)F)s2)cc1` [C(113), 4-[4-Amino-5-(2-fluoro-6-trifluoromethyl-benzoyl)-thiazol-2-ylamino]-benzamide], for which the results for the IC50 in experiment [3], in experiment [4] and in experiment [6] were 3800 nM, 2800 nM and 8000 nM, respectively. The 90% effect concentration (IC90) in experiment [3] came to 8000 nM; in experiment [4] it was 9000 nM; in experiment [6], 19000 nM. Besides, the Ki in experiment [1] stood at 238 nM; in experiment [5], 17.3 nM.

Turning to `CN1CCN(S(=O)(=O)c2ccc(Nc3nc(N)c(C(=O)c4c(F)cccc4F)s3)cc2)CC1` [C(116), {4-Amino-2-[4-(4-methyl-piperazine-1-sulfonyl)-phenylamino]-thiazol-5-yl}-(2,6-difluoro-phenyl)-methanone], the Ki was 120 nM in experiment [1], 121 nM in experiment [5] and 77 nM in experiment [2].

With `NC(=O)N1CCN(c2ccc(Nc3nc(N)c(C(=O)c4c(F)cccc4F)s3)cc2)CC1` [C(123), {4-Amino-2-[4-(4-carbamoyl-piperazin-1-yl)-phenylamino]-thiazol-5-yl}-(2,6-difluoro-phenyl)-methanone], the IC50 in experiment [3] stood at 2700 nM; in experiment [4], 2900 nM; in experiment [6], 7100 nM. Moreover, the concentration for an effect of 90% (IC90) was found to be 7000 nM in experiment [3], 5700 nM in experiment [4] and 12000 nM in experiment [6]. In addition, the values for the Ki in experiment [1] and in experiment [5] were 164 nM and 15.4 nM, respectively.

In the case of `Cc1cc(N)sc1C(=O)c1sc(Nc2ccc(S(N)(=O)=O)cc2)nc1N` [D(5)], the IC50 in experiment [3] was 1900 nM; in experiment [4] it was 17000 nM; in experiment [6], above 25000 nM. The IC90 worked out at 5000 nM in experiment [3] and 25000 nM in experiment [4]. The Ki is 233 nM in experiment [1] and 159 nM in experiment [5].

As to `Nc1nc(Nc2ccc(S(=O)(=O)NCC3CCNCC3)cc2)sc1C(=O)c1c(F)cccc1F` [J(4), 4-[4-Amino-5-(2,6-difluoro-benzoyl)-thiazol-2-ylamino]-N-piperidin-4-ylmethyl-benzenesulfonamide], the Ki in experiment [1] was determined as 13.5 nM; in experiment [5], 10.2 nM; in experiment [2], 22 nM.
